Measurements: US20020103136A1, “Conjugates useful in the treatment of prostate cancer” (priority 1998, published 2002)

Columns and labels:
[1] = system: LNCap prostate tumor cells; assay: In vitro cytotoxicity, Alamar Blue assay, LNCaP cell kill in 72 hrs; type: cell-based; settings: Table 3, 3 days, TFA salt of cytotoxic agent unless otherwise indicated, read-out: LNCaP Cell Kill in 72 HRS EC5O
Procedure: (§1) The cytotoxicities of the vinca alkaloid derivatives, prepared as described in Example 1, and the cleaveable oligopeptide-vinca drug conjugates, prepared as described in Examples 2 and 2A, against a line of cells which is known to be killed by unmodified vinca drug was assessed with an Alamar Blue assay. Specifically, cell cultures of LNCap prostate tumor cells, Colo320DM cells (also designated C320), T24 bladder carcinoma cells or T47D breast carcinoma cells in 96 well plates was diluted with medium containing various concentrations of a given conjugate (final plate well volume of 200 μl). The cells were incubated for 3 days at 37° C., 20 μl of Alamar Blue is added to the assay well. The cells were further incubated and the assay plates were read on a EL-310 ELISA reader at the dual wavelengths of 570 and 600 nm at 4 and 7 hours after addition of Alamar Blue. Relative percentage viability at the various concentration of conjugate tested was then calculated versus control (no cytotoxic agent or conjugate) cultures. Unless otherwise indicated, the TFA salt of the cytotoxic agent and the acetate salt of the conjugate were tested.

[2] = system: Colo320DM cells (also designated C320); assay: In vitro cytotoxicity, Alamar Blue assay, Colo320DM cells; type: cell-based; settings: Table 3, value in parentheses, TFA salt unless otherwise indicated, read-out: Cell Kill in 72 HRS EC5O, Colo320DM
Procedure: as §1

SMILES | EC50 [1] [nM] | EC50 [2] [nM]
CC[C@]1(O)C[C@@H]2CN(CCc3c([nH]c4ccccc34)[C@@](C(=O)OC)(c3cc4c(cc3OC)N(C)[C@H]3[C@@](O)(C(=O)NC(C)C(O)C5CCCCC5)[C@H](O)[C@]5(CC)C=CCN6CC[C@]43[C@@H]65)C2)C1 (single isomer, unassigned; isomer b) [(3-cyclohexyl-3-hydroxyl-2-propylaminol)-(dAc)-VIN isomer B] | 1200 | 800
CC[C@]1(O)C[C@@H]2CN(CCc3c([nH]c4ccccc34)[C@@](C(=O)OC)(c3cc4c(cc3OC)N(C)[C@H]3[C@@](O)(C(=O)NC(CO)c5ccccc5)[C@H](O)[C@]5(CC)C=CCN6CC[C@]43[C@@H]65)C2)C1 (stereo partly drawn) [Phenylglyinol-(dAc)-VIN] | 700 | 4800
CC[C@]1(O)C[C@@H]2CN(CCc3c([nH]c4ccccc34)[C@@](C(=O)OC)(c3cc4c(cc3OC)N(C)[C@H]3[C@@](O)(C(=O)NC5CCCCC5O)[C@H](O)[C@]5(CC)C=CCN6CC[C@]43[C@@H]65)C2)C1 (single isomer, unassigned; isomer a) [(trans-2-hydroxyl)cyclohexylamine-(dAc)-VIN, Isomer A] | 100 | 200
CC[C@]1(O)C[C@@H]2CN(CCc3c([nH]c4ccccc34)[C@@](C(=O)OC)(c3cc4c(cc3OC)N(C)[C@H]3[C@@](O)(C(=O)NC5CCCCC5O)[C@H](O)[C@]5(CC)C=CCN6CC[C@]43[C@@H]65)C2)C1 (single isomer, unassigned; isomer b) [(trans-2-hydroxyl)cyclohexylamino-(dAc)-VIN, Isomer B] | 800 | 800
CC[C@]1(O)C[C@@H]2CN(CCc3c([nH]c4ccccc34)[C@@](C(=O)OC)(c3cc4c(cc3OC)N(C)[C@H]3[C@@](O)(C(=O)N[C@H](CO)Cc5ccccc5)[C@H](O)[C@]5(CC)C=CCN6CC[C@]43[C@@H]65)C2)C1 [L-phenylalaninol-(dAc)-VIN] | 500 | 3500
CC[C@]1(O)C[C@@H]2CN(CCc3c([nH]c4ccccc34)[C@@](C(=O)OC)(c3cc4c(cc3OC)N(C)[C@H]3[C@@](O)(C(=O)OC)[C@H](O)[C@]5(CC)C=CCN6CC[C@]43[C@@H]65)C2)C1 [(dAc)-VINBLASTINE, desacetylvinblastine, reference compound] | 300 | 500
CC[C@]1(O)C[C@@H]2CN(CCc3c([nH]c4ccccc34)[C@@](C(=O)OC)(c3cc4c(cc3OC)N(C)[C@H]3[C@@](O)(C(=O)NC(CO)CO)[C@H](O)[C@]5(CC)C=CCN6CC[C@]43[C@@H]65)C2)C1 [Serinol-(dAc)-VIN] | 800 | 8300
CC[C@]1(O)C[C@@H]2CN(CCc3c([nH]c4ccccc34)[C@@](C(=O)OC)(c3cc4c(cc3OC)N(C)[C@H]3[C@@](O)(C(=O)N5CCC(O)C5)[C@H](O)[C@]5(CC)C=CCN6CC[C@]43[C@@H]65)C2)C1 (stereo partly drawn) [3-hydroxylpyrrolidine-(dAc)-VIN] | 200 | 1500
CC[C@]1(O)C[C@@H]2CN(CCc3c([nH]c4ccccc34)[C@@](C(=O)OC)(c3cc4c(cc3OC)N(C)[C@H]3[C@@](O)(C(=O)N5CCCC(O)C5)[C@H](O)[C@]5(CC)C=CCN6CC[C@]43[C@@H]65)C2)C1 (single isomer, unassigned; isomer a) [3-hydroxyl-piperidine-(dAc)-VIN, isomer A] | 500 | 500
CC[C@]1(O)C[C@@H]2CN(CCc3c([nH]c4ccccc34)[C@@](C(=O)OC)(c3cc4c(cc3OC)N(C)[C@H]3[C@@](O)(C(=O)N[C@H](CO)CC5CCCCC5)[C@H](O)[C@]5(CC)C=CCN6CC[C@]43[C@@H]65)C2)C1 [L-cyclolhexyl-alaninol-(dAc)-VIN] | 1000 | 2000
CC[C@]1(O)C[C@@H]2CN(CCc3c([nH]c4ccccc34)[C@@](C(=O)OC)(c3cc4c(cc3OC)N(C)[C@H]3[C@@](O)(C(=O)N5CCCC(O)C5)[C@H](O)[C@]5(CC)C=CCN6CC[C@]43[C@@H]65)C2)C1 (single isomer, unassigned; isomer b) [3-hydroxyl-piperidine-(dAc)-VIN, isomer B] | 500 | 
